Structures can show the parent of a compound that is named as a salt.
Target: T1, human liver glycogen phosphorylase (Homo sapiens, UniProt P06737)
T1 construct: made in house; host or cells: Sf9 insect cells (suspension of disrupted cells, diluted in BES buffer, not purified)
T1 sequence (P06737 1-847): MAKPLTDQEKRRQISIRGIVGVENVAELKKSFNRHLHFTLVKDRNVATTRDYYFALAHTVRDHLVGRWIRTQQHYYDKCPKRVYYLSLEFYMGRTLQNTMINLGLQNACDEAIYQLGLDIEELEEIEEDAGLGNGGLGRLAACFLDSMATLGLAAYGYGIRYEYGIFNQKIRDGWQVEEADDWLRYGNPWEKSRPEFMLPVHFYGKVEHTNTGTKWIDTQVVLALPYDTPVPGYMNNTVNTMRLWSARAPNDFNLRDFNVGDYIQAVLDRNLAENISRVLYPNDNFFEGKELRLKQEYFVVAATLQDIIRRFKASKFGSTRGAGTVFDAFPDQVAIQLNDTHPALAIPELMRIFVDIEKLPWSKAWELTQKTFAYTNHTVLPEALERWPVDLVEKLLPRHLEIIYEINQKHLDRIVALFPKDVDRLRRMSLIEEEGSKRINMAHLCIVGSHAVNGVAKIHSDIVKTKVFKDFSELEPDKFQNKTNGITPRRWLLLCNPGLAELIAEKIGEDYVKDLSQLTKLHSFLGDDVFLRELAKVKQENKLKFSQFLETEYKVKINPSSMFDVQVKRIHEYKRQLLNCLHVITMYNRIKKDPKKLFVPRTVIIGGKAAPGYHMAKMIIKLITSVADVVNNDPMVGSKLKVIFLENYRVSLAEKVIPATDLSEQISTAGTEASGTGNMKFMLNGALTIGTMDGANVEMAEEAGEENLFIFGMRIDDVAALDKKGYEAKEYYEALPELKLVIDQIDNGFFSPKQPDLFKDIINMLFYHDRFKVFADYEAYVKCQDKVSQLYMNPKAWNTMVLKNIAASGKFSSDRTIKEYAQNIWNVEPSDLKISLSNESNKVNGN
Assay: Liver glycogen phosphorylase activity, forward reaction system (NADPH detection at 340 nm)
Type: biochemical
Settings: enzyme inhibitory activity against recombinant human liver glycogen phosphorylase (Sf9 cell lysate), room temperature, 75 minutes
How it was run: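 Recombinant human liver glycogen phosphorylase from Sf9 lysate, run in forward direction with glycogen and phosphate substrate plus glucose, coupled via phosphoglucomutase/G6PDH to NADPH formation. BES buffer pH 6.8, room temperature, 75 min; A340 change minus blank gives activity. IC50 from percent inhibition vs DMSO control.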

Row | Structure (SMILES) | IC50
1 | CCOC(=O)c1nc(C)oc1CNC(=O)c1cc(NC(=O)c2cc(F)c(F)cc2Cl)[nH]n1 [Example 1-34, 5-(2-chloro-4,5-difluoro-benzoylamino)-1H-pyrazole-3-carboxylic acid (4-ethoxycarbonyl-2-methyl-oxazol-5-ylmethyl)-amide] | < 100 nM
2 | Cc1cccc(-c2nc(C)oc2CNC(=O)c2cc(NC(=O)c3cc(F)c(F)cc3Cl)[nH]n2)c1 [Example 1-30, 5-(2-chloro-4,5-difluoro-benzoylamino)-1H-pyrazole-3-carboxylic acid [4-(3-methyl-phenyl)-2-methyl-oxazol-5-ylmethyl]-amide] | < 100 nM
3 | Cc1nc(Cc2ccccc2)oc1CNC(=O)c1cc(NC(=O)c2cc(F)c(F)cc2Cl)[nH]n1 [Example 1-41, 5-(2-chloro-4,5-difluoro-benzoylamino)-1H-pyrazole-3-carboxylic acid (2-benzyl-4-methyl-oxazol-5-ylmethyl)-amide] | < 100 nM
4 | Cc1nc(-c2cc3ccccc3s2)sc1CNC(=O)c1cc(NC(=O)c2cc(F)c(F)cc2Cl)[nH]n1 [Example 1-9, 5-(2-chloro-4,5-difluoro-benzoylamino)-1H-pyrazole-3-carboxylic acid (2-benzo[b]thiophen-2-yl-4-methyl-thiazol-5-ylmethyl)-amide] | < 100 nM
5 | Cc1ccc(-c2onc(C)c2CNC(=O)c2cc(NC(=O)c3cc(F)c(F)cc3Cl)[nH]n2)cn1 [Example 1-21, 5-(2-chloro-4,5-difluoro-benzoylamino)-1H-pyrazole-3-carboxylic acid [3-methyl-5-(6-methyl-pyridin-3-yl)-isoxazol-4-ylmethyl]-amide] | < 100 nM
6 | Cc1nc(-c2ccc(Cl)cc2)c(CNC(=O)c2cc(NC(=O)c3cc(F)c(F)cc3Cl)[nH]n2)o1 [Example 1-28, 5-(2-chloro-4,5-difluoro-benzoylamino)-1H-pyrazole-3-carboxylic acid [4-(4-chloro-phenyl)-2-methyl-oxazol-5-ylmethyl]-amide] | < 100 nM
7 | Cn1cccc1-c1nnc(CNC(=O)c2cc(NC(=O)c3cc(F)c(F)cc3Cl)[nH]n2)o1 [Example 1-75, 5-(2-chloro-4,5-difluoro-benzoylamino)-1H-pyrazole-3-carboxylic acid [5-(1-methyl-1H-pyrrol-2-yl)-[1,3,4]oxadiazol-2-ylmethyl]-amide] | < 100 nM
8 | Cc1cc(-c2nnsc2CNC(=O)c2cc(NC(=O)c3cc(F)c(F)cc3Cl)[nH]n2)c(C)o1 [Example 1-84, 5-(2-chloro-4,5-difluoro-benzoylamino)-1H-pyrazole-3-carboxylic acid [4-(2,5-dimethyl-furan-3-yl)-[1,2,3]thiadiazol-5-ylmethyl]-amide] | < 100 nM
9 | Cc1noc(-c2noc(C)c2CNC(=O)c2cc(NC(=O)c3cc(F)c(F)cc3Cl)[nH]n2)n1 [Example 1-70, 5-(2-chloro-4,5-difluoro-benzoylamino)-1H-pyrazole-3-carboxylic acid [5-methyl-3-(3-methyl-[1,2,4]oxadiazol-5-yl)-isoxazol-4-ylmethyl]-amide] | < 100 nM
10 | NC(=O)Cc1nnc(CNC(=O)c2cc(NC(=O)c3cc(F)c(F)cc3Cl)[nH]n2)o1 [Example 3-20, 5-(2-chloro-4,5-difluoro-benzoylamino)-1H-pyrazole-3-carboxylic acid (5-carbamoylmethyl-[1,3,4]oxadiazol-2-ylmethyl)-amide] | 100 to 300 nM
11 | CCOC(=O)COCc1nc(C)c(CNC(=O)c2cc(NC(=O)c3cc(F)c(F)cc3Cl)[nH]n2)o1 [Example 1-48, 5-(2-chloro-4,5-difluoro-benzoylamino)-1H-pyrazole-3-carboxylic acid (2-ethoxycarbonylmethoxymethyl-4-methyl-oxazol-5-ylmethyl)-amide] | < 100 nM
12 | Cc1nc(C(=O)O)oc1CNC(=O)c1cc(NC(=O)c2cc(F)c(F)cc2Cl)[nH]n1 [Example 3-14, sodium 5-({[5-(2-chloro-4,5-difluoro-benzoylamino)-1H-pyrazole-3-carbonyl]-amino}-methyl)-4-methyl-oxazole-2-carboxylate] | < 100 nM
13 | Cc1nc(-c2cccc(F)c2)c(CNC(=O)c2cc(NC(=O)c3cc(F)c(F)cc3Cl)[nH]n2)o1 [Example 1-26, 5-(2-chloro-4,5-difluoro-benzoylamino)-1H-pyrazole-3-carboxylic acid [4-(3-fluoro-phenyl)-2-methyl-oxazol-5-ylmethyl]-amide] | < 100 nM
14 | Cc1nc(Cc2ccccc2)c(CNC(=O)c2cc(NC(=O)c3cc(F)c(F)cc3Cl)[nH]n2)o1 [Example 1-36, 5-(2-chloro-4,5-difluoro-benzoylamino)-1H-pyrazole-3-carboxylic acid (4-benzyl-2-methyl-oxazol-5-ylmethyl)-amide p-toluenesulfonate] | < 100 nM
15 | O=C(NCc1cnc(C2CC2)nc1C1CC1)c1cc(NC(=O)c2cc(F)c(F)cc2Cl)[nH]n1 [Example 1-82, 5-[2-chloro-4,5-difluoro-benzoylamino)-1H-pyrazole-3-carboxylic acid (2,4-dicyclopropyl-pyrimidin-5-ylmethyl)-amide hydrochloride] | < 100 nM
16 | Cc1nc(C(=O)N(C)Cc2ccccc2)oc1CNC(=O)c1cc(NC(=O)c2cc(F)c(F)cc2Cl)[nH]n1 [Example 3-25, 5-({[5-(2-chloro-4,5-difluoro-benzoylamino)-1H-pyrazole-3-carbonyl]-amino}-methyl)-4-methyl-oxazole-2-carboxylic acid benzyl-methyl-amide] | < 100 nM
17 | Cc1nc(COCC(F)(F)F)oc1CNC(=O)c1cc(NC(=O)c2cc(F)c(F)cc2Cl)[nH]n1 [Example 1-46] | < 100 nM
18 | CCOC(=O)c1nc(C)c(CNC(=O)c2cc(NC(=O)c3cc(F)c(F)cc3Cl)[nH]n2)s1 [Example 1-10, 5-(2-chloro-4,5-difluoro-benzoylamino)-1H-pyrazole-3-carboxylic acid (2-ethoxycarbonyl-4-methyl-thiazol-5-ylmethyl)-amide] | < 100 nM
19 | Cc1nc(CO)c(CNC(=O)c2cc(NC(=O)c3cc(F)c(F)cc3Cl)[nH]n2)o1 [Example 1-35, 5-(2-chloro-4,5-difluoro-benzoylamino)-1H-pyrazole-3-carboxylic acid (4-hydroxymethyl-2-methyl-oxazol-5-ylmethyl)-amide] | < 100 nM

Reference: US20090036450A1, “PYRAZOLE COMPOUNDS AND USE THEREOF” (JAPAN TOBACCO, INC., priority 2006, published 2009)
